Experimental data published in PubChem BioAssay AID588737 (Vanderbilt Specialized Chemistry Center, 2011).

Target: Metabotropic glutamate receptor 5 (Homo sapiens) (UniProt P41594)
Assay: PubChem AID 588737
Conditions: HEK293A hmGluR5 calcium fluorescence, glutamate CRC fold shift, at 10 µM, stronger effect = higher value; for Emax: glutamate max response with compound

Metabotropic glutamate receptor 5 (Homo sapiens), sequence (P41594 whole entry, looked up): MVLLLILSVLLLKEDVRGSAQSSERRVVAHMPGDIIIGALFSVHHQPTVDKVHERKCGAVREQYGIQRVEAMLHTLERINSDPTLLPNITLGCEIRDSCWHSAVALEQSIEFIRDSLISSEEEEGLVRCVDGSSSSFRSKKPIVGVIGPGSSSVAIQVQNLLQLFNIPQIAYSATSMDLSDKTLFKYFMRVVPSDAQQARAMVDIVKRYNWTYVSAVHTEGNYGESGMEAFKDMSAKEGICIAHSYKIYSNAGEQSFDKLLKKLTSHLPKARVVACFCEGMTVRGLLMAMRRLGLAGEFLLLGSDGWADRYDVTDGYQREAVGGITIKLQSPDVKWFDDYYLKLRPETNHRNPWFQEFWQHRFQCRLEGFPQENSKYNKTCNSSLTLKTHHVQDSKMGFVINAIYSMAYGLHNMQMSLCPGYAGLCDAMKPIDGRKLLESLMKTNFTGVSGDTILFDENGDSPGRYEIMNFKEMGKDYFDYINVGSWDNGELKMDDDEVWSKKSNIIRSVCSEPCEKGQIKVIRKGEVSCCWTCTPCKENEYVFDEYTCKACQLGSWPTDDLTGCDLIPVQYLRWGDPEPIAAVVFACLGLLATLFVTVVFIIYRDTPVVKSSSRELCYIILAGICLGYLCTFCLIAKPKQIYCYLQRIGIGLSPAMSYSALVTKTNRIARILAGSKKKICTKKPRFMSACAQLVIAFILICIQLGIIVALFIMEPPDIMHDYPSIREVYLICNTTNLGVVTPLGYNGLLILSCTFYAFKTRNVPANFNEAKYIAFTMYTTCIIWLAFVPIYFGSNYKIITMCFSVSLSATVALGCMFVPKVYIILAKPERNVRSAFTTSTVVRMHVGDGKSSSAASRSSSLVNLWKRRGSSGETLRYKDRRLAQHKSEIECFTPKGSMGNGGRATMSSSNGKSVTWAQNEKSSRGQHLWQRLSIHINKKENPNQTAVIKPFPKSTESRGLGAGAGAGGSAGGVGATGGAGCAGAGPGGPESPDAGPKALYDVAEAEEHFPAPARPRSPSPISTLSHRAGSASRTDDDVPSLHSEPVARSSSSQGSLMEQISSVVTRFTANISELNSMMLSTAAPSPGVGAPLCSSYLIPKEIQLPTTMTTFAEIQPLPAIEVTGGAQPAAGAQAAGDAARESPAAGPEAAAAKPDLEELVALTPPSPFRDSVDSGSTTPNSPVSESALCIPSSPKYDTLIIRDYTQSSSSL

| Structure (SMILES) | fold shift | Emax |
| --- | --- | --- |
| C[C@@H](NC(=O)c1ccc(C#Cc2cccc(F)c2)cn1)C(C)(C)O | 9.79 | 95% |
| CC1(NC(=O)c2ccc(C#Cc3cccc(F)c3)cn2)COC1 | 2.19 | 88% |
